Test [1] has as its system MDA-MB-468 cells. As to the kind of experiment: TUNEL detection of apoptosis, MDA-MB-468. The conditions noted are these: IC50 concentration, control 0.0 ± 0.0. The format is cell-based. The procedure:
TdT-Mediated dUTP nick end labeling (TUNEL) detection of apoptosis index. For detection of apoptotic cells, the TUNEL assay was used. […] After period of treatment, the cells were washed with PBS and fixed on the slides with cold acetone-methanol (1:1, v/v) for 10 min. Apoptosis-induced nuclear DNA fragmentation was detected by terminal deoxynucleotidyl transferase-mediated UTP nick end labeling (TUNEL) technique according to the producer protocol (In Situ Cell Death Detection Kit; Roche Diagnostics, Mannheim, Germany). The cells were then washed three times in PBS and stained with 4′-6-diamidino-2-phenylindole (DAPI; 50 μg/ml; Sigma, St. Louis, Mo., USA) for 10 min in the dark. The coverslips with cells were washed in deionized water and mounted on glass slides, using the hydrophilic medium Mowiol (Calbiochem, Fremont, Calif., USA) in glycerol-PBS (1:3, v/v) for fluorescence. Cells were visualized using fluorescence microscopy and compared with control cells. TUNEL staining achieved to confirm apoptosis in all cell lines.

Test [2] concerns MDA-MB-468 cells. As to the kind of experiment: Western blot of cell cycle and apoptosis related proteins, MDA-MB-468. The format is cell-based. The conditions noted are these: for expression of apoptosis related proteins (Bcl-2 family, caspase-3 activation) (Western blot) / p21Waf1/Cip1 expression (Western blot) / p27Kip1 expression (Western blot): IC50 for 6, 12, 24 h vs untreated control; for retinoblastoma protein (Rb) expression, phosphorylated and dephosphorylated forms (Western blot): vs untreated control. On the procedure:
The cells were seeded in a density 1.6×10^4 cells/cm^2 (LNCaP), 1.4×10^4 cells/cm^2 (DU-145, MDA-MB-468 and MCF-7) using culture medium in 100-mm culture Petri dishes. After reaching of 70-80% confluence, the cells were treated with tested compounds 9 in concentration IC50 that were evaluated by MTT analysis described above. DMSO was used as a vehicle for controls. After 6, 12 and 24 h treatment, the cells were washed with cold PBS and scraped in ice-cold protein extract ion buffer (50 mM HEPES, pH 7.5; 150 mM NaCl; 1 mM EDTA; 2.5 mM EGTA; 10% glycerol; 0.1% Tween 20) with protease and phosphatase inhibitors (25 μL/mL phenylmethanesulphonyl fluoride; 2.5 μL/mL leupeptin; 0.1 mM Na3VO4; 2.5 μL/mL aprotinin; 10 mM β-glycerol-phosphate; 1 mM dithiothreitol). The lysates were collected into microfuge tube and incubated on ice for 1 h. Cells were incubated 60 min at 4° C. under time by time shaking in protein extraction buffer. After centrifugation at 45 000×g for 30 min at 4° C., supernatant was collected, aliquoted, and stored at −80° C. The protein content in the lysates was measured by a Bredford assay (Bio-Rad Laboratories, Hercules, Calif., USA) according to the manufacture's protocol.
For Western blot analysis, equal aliquots of proteins (15-30 μg/well) were loaded on 10% or 12% SDS-PAGE gels and transferred onto nitrocellulose membranes (Amersham Biosciences, Vienna, Austria) by semi-dry electrophoretic transfer. Coloured marker (Rainbow™, Amersham Biosciences, Vienna, Austria) was used as a protein molecular weight standard. The non-specific binding sites were blocked by incubating the blot with 5% (w/v) non-fat dry milk in PBS for 2 h. The blot was incubated overnight in 4° C. with appropriate primary antibody that detects the protein epitope of interest and finally washed in PBS with 0.1% Tween 20 for 1 h. The blot was incubated with the diluted secondary goat anti-mouse IgG-horseradish peroxidase conjugated antibody (dilution 1:6000, Santa Cruz Biotechnology, Santa Cruz, Calif., USA) or goat anti-rabbit IgG-horseradish peroxidase conjugated antibody (dilution 1:2000, DakoCytomation, Glostrup, Denmark) for 45 min in 4° C. The membrane was washed in PBS with 0.1% Tween 20 for 1 h. The proteins were detected using a chemiluminescence detection system (Amersham Biosciences, Vienna, Austria) according to the protocol provided by the manufacturer. Equality of loaded proteins was confirmed by Ponceau S membrane staining (Sigma, St. Louis, Mo., USA) and by detection of anti-tubulin-α or anti-mcm-7 antibodies. The experiments were repeated three times. The protein expressions in treated cells were compared to untreated controls.
Western blot analysis was used to detect changes in apoptosis related protein expression in breast and prostate cancer cell lines. […] This decreased expression of Bid can indicate a cleavage of the protein after treatment by BRs. In DU-145 cell line, expression of pro-apoptotic proteins Bax and Bid was unchanged. […] On the other hand, caspase cleavage was not found in DU-145 cells. Poly-(ADP-ribose) polymerase (PARP) positive expression in controls of prostate cancer cell lines was observed but brassinosteroids had no effect on its expression nor on its degradation within the period 6/12/24 h (FIG. 6B).

SMILES strings stand for the structures.

Consider `CC[C@@H](C(C)C)[C@@H](O)[C@H](O)[C@@H](C)[C@H]1CC[C@H]2[C@@H]3CC(=O)[C@H]4C[C@H](O)[C@H](O)C[C@]4(C)[C@H]3CC[C@]12C` [Brassinosteroid 9, 28-Homocastasterone], for which the “percentage of TUNEL positive cells” value in the test on MDA-MB-468 cells [1] (6 h) is 1.7 ± 0.6%. Moreover, the “percentage of TUNEL positive cells” value in the test with MDA-MB-468 cells [1] (12 h) was found to be 2.3 ± 0.6%. Further, the “percentage of TUNEL positive cells” value in the test with MDA-MB-468 cells [1] (24 h) turned out to be 4.3 ± 0.6 %. In the test on MDA-MB-468 cells [2], the “expression of apoptosis related proteins (Bcl-2 family, caspase-3 activation) (Western blot)” value is “no significant changes in expression of Bcl-2 family protein nor caspase-3 activation”; the “p21Waf1/Cip1 expression (Western blot)” value is on record as “no significant changes”; the “p27Kip1 expression (Western blot)” value is reported as “no significant changes”; the “retinoblastoma protein (Rb) expression, phosphorylated and dephosphorylated forms (Western blot)” value was “decreased”.

With `CC(C)[C@@H](C)[C@@H](O)[C@H](O)[C@@H](C)[C@H]1CC[C@H]2[C@@H]3COC(=O)[C@H]4C[C@H](O)[C@H](O)C[C@]4(C)[C@H]3CC[C@]12C` [Brassinosteroid 6, 24-Epibrassinolide], the “percentage of TUNEL positive cells” value in the test with MDA-MB-468 cells [1] (6 h) came out at 4.7 ± 0.6 %. Further, in the test with MDA-MB-468 cells [1] (12 h), the “percentage of TUNEL positive cells” value is listed as 16.7 ± 4.7 %. The “percentage of TUNEL positive cells” value in the test on MDA-MB-468 cells [1] (24 h) is recorded as 18.3 ± 3.0 %. In the test with MDA-MB-468 cells [2] (6/12/24 h vs untreated control), the “cyclin D1 expression (Western blot)” value is “decreased expression of cyclin D1”. Further, in the test on MDA-MB-468 cells [2], the “expression of apoptosis related proteins (Bcl-2 family, caspase-3 activation) (Western blot)” value is “no significant changes in expression of Bcl-2 family protein nor caspase-3 activation”; the “p21Waf1/Cip1 expression (Western blot)” value was “significantly increased after 12 and 24 h”; the “p27Kip1 expression (Western blot)” value is reported as “decreased in all time points”; the “retinoblastoma protein (Rb) expression, phosphorylated and dephosphorylated forms (Western blot)” value is “decreased”.

The values above are taken from patent US20100204460A1, “NATURAL BRASSINOSTEROIDS FOR USE FOR TREATING HYPERPROLIFERATION, TREATING PROLIFERATIVE DISEASES AND REDUCING ADVERSE EFFECTS OF STEROID DYSFUNCTION IN MAMMALS, PHARMACEUTICAL COMPOSITION AND ITS USE” (priority 2007, published 2010).
